Assay results published in patent US6949566B2, “Thiazole and oxazole derivatives” (Shionogi & Co. Ltd., priority 2000, dated 2005).

Columns and labels:
Type in all cases: biochemical
MMP-12 = biological target: T1, MMP-12 (Homo sapiens, UniProt P39900); assay: Assay for inhibitory activities on MMPs (fluorogenic peptide substrate), MMP-12; conditions: catalytic domain 100Phe-263Gly; substrate MOCAc-Pro-Leu-Gly-Leu-A2Pr(DNP)-Ala-Arg-NH2
T1 construct: catalytic domain(^100Phe˜^263Gly) was amplified with RT-PCR; His-tag; enterokinase digestion-site; made in house; host or cells: Escherichia coli
Description: (§1) In regard to MMP-12, catalytic domain(^100Phe˜^263Gly) was amplified with RT-PCR from Human Placenta Total RNA. This was cloned in Escherichia. coli expression vector pTrc99AHE inserted with His-tag sequence and enterokinase digestion-site, induced and expressed by IPTG (Isopropyl-β-D-thiogalactopyranoside) and expressed in a insoluble fraction. Isolation of MMP-12 from an insoluble fraction was carried out by dissolving in modifier (6M urea) by a usual method and purification with metal chelate chromatography (Ni Chelateing Sepharose). And then removing modifier (6M urea) with dialysis and refolding of the enzyme spontaneously gave activated MMP-12.
(§2) The enzymatic activity on MMPs was analyzed by the method described in “C. Graham Knight, Frances Willenbrock and Gillian Murphy: A novel coumarin-labelled peptide for sensitive continuous assays of the matrix metalloproteinases: FEBS LETT., 296, (1992), 263-266”. The substrate MOCAc-Pro-Leu-Gly-Leu-A2Pr(DNP)-Ala-Arg-NH2 was purchased from Peptide Institute, Inc., Osaka, Japan. The measurement of the inhibitory activities (IC50) was carried out by the following four methods;
(§3) (A) Reaction with substrate, enzyme (MMPs) and inhibitor
(§4) (B) Reaction with substrate and inhibitor, without enzyme
(§5) (C) Reaction with substrate and enzyme (MMPs), without inhibitor
(§6) (D) Reaction with substrate only
(§7) IC50 values were calculated by using the following formula and each fluorescence values of above four methods (A to D). % inhibition={1−(A−B)/(C−D)}×100 IC50 means the concentration required to inhibit 50% of the enzyme activity.

MMP-13 = biological target: T2, MMP-13 (Homo sapiens, UniProt P45452); assay: Assay for inhibitory activities on MMPs (fluorogenic peptide substrate), MMP-13; conditions: catalytic domain 104Tyr-267Gly; substrate MOCAc-Pro-Leu-Gly-Leu-A2Pr(DNP)-Ala-Arg-NH2
T2 construct: catalytic domain (^104Tyr˜^267Gly) was amplified with RT-PCR; His-tag; enterokinase digestion-site; made in house; host or cells: Escherichia coli
Description: as §1, with “MMP-13, mRNA was prepared from carcinoma cell SW1353 derived from human cartilage stimulate by IL-1, TNF and” for “MMP-12,”, “domain (^104Tyr˜^267Gly)” for “domain(^100Phe˜^263Gly)”, “RT-PCR.” for “RT-PCR from Human Placenta Total RNA.”, “MMP-13” for “MMP-12”, “dialyze” for “dialysis”, “MMP-13.” for “MMP-12.”
as §2, §3, §4, §5, §6, §7

MMP-2 = biological target: T3, MMP-2 (Homo sapiens, UniProt P08253); assay: Assay for inhibitory activities on MMPs (fluorogenic peptide substrate), MMP-2; conditions: purchased MMP-2; substrate MOCAc-Pro-Leu-Gly-Leu-A2Pr(DNP)-Ala-Arg-NH2
T3 construct: purchased Calbiochem-Novabiochem International, Inc
T3 sequence (P08253 110-660): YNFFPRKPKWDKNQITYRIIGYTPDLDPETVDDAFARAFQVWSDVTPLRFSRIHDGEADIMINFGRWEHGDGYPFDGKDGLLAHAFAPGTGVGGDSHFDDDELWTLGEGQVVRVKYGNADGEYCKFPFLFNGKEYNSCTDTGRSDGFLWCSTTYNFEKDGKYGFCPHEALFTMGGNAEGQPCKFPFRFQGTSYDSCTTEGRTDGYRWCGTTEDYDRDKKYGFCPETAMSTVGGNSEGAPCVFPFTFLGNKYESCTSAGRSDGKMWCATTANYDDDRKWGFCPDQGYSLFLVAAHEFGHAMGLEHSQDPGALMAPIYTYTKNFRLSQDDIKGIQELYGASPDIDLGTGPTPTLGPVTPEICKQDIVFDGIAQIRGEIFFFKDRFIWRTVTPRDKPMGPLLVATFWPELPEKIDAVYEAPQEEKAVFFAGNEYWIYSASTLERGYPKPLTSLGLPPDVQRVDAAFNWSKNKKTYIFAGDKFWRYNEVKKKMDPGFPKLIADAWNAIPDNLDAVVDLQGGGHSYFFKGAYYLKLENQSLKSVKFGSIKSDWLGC
Description: MMP-2 was purchased from Calbiochem-Novabiochem International, Inc.
as §2, §3, §4, §5, §6, §7

MMP-8 = biological target: T4, MMP-8 (Homo sapiens, UniProt P22894); assay: Assay for inhibitory activities on MMPs (fluorogenic peptide substrate), MMP-8; conditions: catalytic domain 99Phe-262Gly; substrate MOCAc-Pro-Leu-Gly-Leu-A2Pr(DNP)-Ala-Arg-NH2
T4 construct: catalytic domain (^99Phe˜^262Gly) was amplified with PCR; His-tag; enterokinase digestion-site; made in house; host or cells: Escherichia coli
Text: In regard to MMP-8, catalytic domain (^99Phe˜^262Gly) was amplified with PCR using commercial available Human Bone Marrow cDNA. This was cloned in Escherichia. coli expression vector pTrc99AHE inserted with His-tag sequence and enterokinase digestion-site, induced and expressed by IPTG (Isopropyl-β-D-thiogalactopyranoside) and expressed in a insoluble fraction (Thau F. Ho, M. Walid Qoronfleh, Robert C. Wahl, Trica A. Pulvino, Karen J. Vavra, Joe Falvo, Tracey M. Banks, Patricia G. Brake and Richard B. Ciccarelli: Gene expression, purification and characterization of recombinant human neutrophil collagenase. Gene 146, (1994) 297-301, Prepared by the a improved method of this material). Isolation of MMP-8 from an insoluble fraction was carried out by dissolving in modifier (6M urea) by a usual method and purification with metal chelate chromatography. And then removing modifier (6M urea) with dialysis and refolding of the enzyme spontaneously gave activated MMP-8.
as §2, §3, §4, §5, §6, §7

MMP-9 = biological target: T5, MMP-9 (Homo sapiens, UniProt P14780); assay: Assay for inhibitory activities on MMPs (fluorogenic peptide substrate), MMP-9; conditions: MMP-9 from HT1080 cells, activated by TPCK-Trypsin; substrate MOCAc-Pro-Leu-Gly-Leu-A2Pr(DNP)-Ala-Arg-NH2
T5 construct: endogenous in cells; host or cells: HT1080 human fibrosarcoma cells, TPA-stimulated; enzyme purified from conditioned medium
Text: MMP-9 was isolated and purified by procedures described in as follows: Yasunori Okada, Yukio Gonoji, Katsumi Naka, Katsuro Tomita, Isao Nakanishi, Kazushi Iwata, Kyoko Yamashita, and Taro Hayakawa: Matrix metalloproteinase 9 (92-kDa gelatinase/type IV collagenase) from HT1080 human fibrosarcoma cells. Purification and activation of the precursor and enzymic properties J. Biol. Chem., 1992, 267 21712-21719, in combination with others: 1)Yasunori Okada, Tatsuhisa Morodomi, Jan J, Enghild, ko Suzuki, Atsushi Yasui, Isao Nakanishi, Guy Salvesen and Hideaki Nagase: Matrix metalloproteinase 2 from human rheumatoid synovial fibroblasts. Purification and activation of the precursor and enzymic properties. Eur. J. Biochem. 1990, 194 721-730; 2)Robin V Ward, Rosalind M Hembry, John J Reynolds and Gillian Murphy: The purification of tissue inhibitor of metalloproteinase-2 from its 72 kDa progelatinase complex. Biochem. J. 1991 278 179-187. In detail, human fibrosarcoma ATCC HT1080 cell line was cultured to confluent in Dulbecco's Modified Medium (DMEM) containing 10% fetal-calf serum at 37° C. for 48 hours. Subsequently, the medium of confluent culture was changed to serum-free DMEM medium. To obtain MMP-9, Phorbol-12-myristate-13-acetate (TPA) must be added to this serum-free DMEM medium at a concentration of 50 ng/ml. The TPA treated medium was centrifuged at 3000 rpm for 15 min and the supernatant was concentrated to 450 ml by a Toyo-Roshi UP-20 apparatus with an ultrafiltration membrane. Then, proMMP-9 in this concentrated solution was purified by using columns of Gelatin-Sepharose and Concanavalin A-Sepharose. The pool containing proMMP-9 was dialyzed, concentrated (Toyo-Roshi UP-20) and applied to columns of Sephacryl S-200 and Green A matrix for the separation from TIMPs. The obtained proMMP-9 fraction was activated by TPCK-Trypsin (Final conc. 3 μg/501 μl React Mix.).
as §2, §3, §4, §5, §6, §7

T5 sequence (P14780 107-707 limits assumed): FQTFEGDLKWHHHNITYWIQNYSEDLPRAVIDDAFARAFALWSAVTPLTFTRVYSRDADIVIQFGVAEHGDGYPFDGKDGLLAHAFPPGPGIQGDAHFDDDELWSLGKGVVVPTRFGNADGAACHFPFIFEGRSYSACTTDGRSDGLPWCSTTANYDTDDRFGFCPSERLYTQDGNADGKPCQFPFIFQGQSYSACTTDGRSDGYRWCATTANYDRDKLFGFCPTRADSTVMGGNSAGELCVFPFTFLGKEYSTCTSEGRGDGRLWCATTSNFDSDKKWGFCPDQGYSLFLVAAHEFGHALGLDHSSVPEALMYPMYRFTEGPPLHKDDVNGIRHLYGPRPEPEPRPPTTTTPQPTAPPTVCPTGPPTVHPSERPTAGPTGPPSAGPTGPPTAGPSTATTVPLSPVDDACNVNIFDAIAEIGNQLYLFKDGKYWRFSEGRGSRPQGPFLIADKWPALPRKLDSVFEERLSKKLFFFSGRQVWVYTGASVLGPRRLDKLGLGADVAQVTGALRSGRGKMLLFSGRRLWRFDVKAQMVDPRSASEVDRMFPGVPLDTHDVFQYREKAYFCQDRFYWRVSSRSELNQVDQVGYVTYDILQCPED
T1 sequence (P39900 100-263): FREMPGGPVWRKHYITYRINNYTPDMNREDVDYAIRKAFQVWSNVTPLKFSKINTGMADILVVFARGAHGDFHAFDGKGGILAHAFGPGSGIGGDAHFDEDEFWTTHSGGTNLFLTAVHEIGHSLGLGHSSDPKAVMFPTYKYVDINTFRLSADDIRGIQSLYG
T4 sequence (P22894 99-262): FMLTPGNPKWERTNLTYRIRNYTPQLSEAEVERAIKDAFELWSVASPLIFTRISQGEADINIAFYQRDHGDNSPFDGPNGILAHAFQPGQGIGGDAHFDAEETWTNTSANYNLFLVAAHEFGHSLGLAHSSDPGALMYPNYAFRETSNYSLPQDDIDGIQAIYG

| IC50 (MMP-12) [nM] | IC50 (MMP-13) [nM] | IC50 (MMP-2) [nM] | IC50 (MMP-8) [nM] | IC50 (MMP-9) [nM] | Compound |
| --- | --- | --- | --- | --- | --- |
| 28.4 | – | – | – | – | C[C@H](NS(=O)(=O)c1ccc(-c2ncc(-c3ccc(Cl)cc3)o2)cc1)C(=O)O [Compound A-5] |
| 12.5 | 234 | 9.71 | 233 | 368 | C[C@@H](NS(=O)(=O)c1ccc(-c2ncc(-c3ccc(F)cc3)o2)cc1)C(=O)O [Compound A-6] |
| 2.78 | 22.6 | 3.37 | 25.2 | 218 | COc1ccc(-c2cnc(-c3ccc(S(=O)(=O)N[C@H](C)C(=O)O)cc3)o2)cc1 [Compound A-8] |
| 27.3 | 433 | 287 | 266 | 9320 | COc1ccc(-c2cnc(-c3ccc(S(=O)(=O)N[C@@H](C)C(=O)O)cc3)o2)cc1 [Compound A-9] |
| 2.42 | 59.2 | 5.46 | 97.4 | 135 | C[C@@H](NS(=O)(=O)c1ccc(-c2ncc(-c3ccc(Br)cc3)o2)cc1)C(=O)O [Compound A-10] |
| 1.88 | 5.51 | 2.66 | 7.07 | 174 | COc1ccc(-c2cnc(-c3ccc(S(=O)(=O)N[C@H](Cc4ccccc4)C(=O)O)cc3)o2)cc1 [Compound A-14] |
| 26.2 | 774 | 265 | – | 758 | O=C(O)[C@H](Cc1ccccc1)NS(=O)(=O)c1ccc(-c2ncc(-c3ccc(Cl)cc3)o2)cc1 [Compound A-16] |
| 7.71 | 113 | 14.4 | 113 | 247 | O=C(O)[C@@H](Cc1ccccc1)NS(=O)(=O)c1ccc(-c2ncc(-c3ccc(F)cc3)o2)cc1 [Compound A-19] |
| 2.69 | 5.31 | 7.84 | 53.3 | 144 | CC(C)[C@H](NS(=O)(=O)c1ccc(-c2ncc(-c3ccccc3)o2)cc1)C(=O)O [Compound A-22] |
| 10 | 678 | 670 | 337 | 2370 | CC(C)[C@H](NS(=O)(=O)c1ccc(-c2ncc(-c3ccc(Cl)cc3)o2)cc1)C(=O)O [Compound A-24] |
| 7.48 | 140 | 12.2 | 75.9 | 179 | CC(C)[C@@H](NS(=O)(=O)c1ccc(-c2ncc(-c3ccc(F)cc3)o2)cc1)C(=O)O [Compound A-25] |
| 40.2 | – | 514 | 569 | 1810 | CC(C)[C@H](NS(=O)(=O)c1ccc(-c2ncc(-c3ccc(F)cc3)o2)cc1)C(=O)O [Compound A-26] |
| 1.55 | 54.5 | 6.08 | 57.3 | 67.9 | CC(C)[C@@H](NS(=O)(=O)c1ccc(-c2ncc(-c3ccc(Br)cc3)o2)cc1)C(=O)O [Compound A-27] |
| 5.05 | 44.8 | 10.9 | 26.1 | 483 | COc1ccc(-c2cnc(-c3ccc(S(=O)(=O)N[C@H](CC(C)C)C(=O)O)cc3)o2)cc1 [Compound A-28] |
| 11.4 | 226 | 44.4 | 320 | 502 | CC(C)C[C@@H](NS(=O)(=O)c1ccc(-c2ncc(-c3ccc(Cl)cc3)o2)cc1)C(=O)O [Compound A-30] |
| 2.98 | 140 | 16.3 | 127 | 226 | CSCC[C@@H](NS(=O)(=O)c1ccc(-c2ncc(-c3ccc(Cl)cc3)o2)cc1)C(=O)O [Compound A-36] |
| 2.25 | 19 | 7.16 | 279 | 157 | C[C@@H](NS(=O)(=O)c1ccc(-c2ncc(-c3ccc4ccccc4c3)o2)cc1)C(=O)O [Compound A-46] |
| 0.699 | 11.9 | 4.86 | 146 | 88.6 | CC(C)[C@@H](NS(=O)(=O)c1ccc(-c2ncc(-c3ccc4ccccc4c3)o2)cc1)C(=O)O [Compound A-50] |
| 2.92 | 14.5 | 1.83 | 15.1 | 13.8 | CC(C)[C@@H](NS(=O)(=O)c1ccc(-c2ncc(-c3ccccc3)s2)cc1)C(=O)O [Compound B-2] |
| 3.16 | 15 | 7.45 | 18.9 | 70.5 | CC(C)[C@H](NS(=O)(=O)c1ccc(-c2ncc(-c3ccccc3)s2)cc1)C(=O)O [Compound B-3] |
